Assay results: patent US12479927B2, “Compounds comprising cleavable linker and uses thereof” (priority 2017, dated 2025)
Non-standard residues stand in square brackets, D forms with d. Residues, ends and D or L forms follow the SMILES beside them. Dolaproine = CO[C@@H]([C@@H]1CCCN1)[C@@H](C)C(=O)O; Dil = CC[C@H](C)[C@H](NC)[C@@H](CC(=O)O)OC; NMeV = CN[C@H](C(=O)O)C(C)C

Experiments:
[1] = Plasma stability test, dog; type: in vitro ADME; details: beagle dog plasma, 37° C., up to 7 days, 300 μM
Description: (§1) The compound A-1 obtained in Example 58 and MPS used as a standard material were dissolved in DMSO to make a concentration of 60 mM. Then, each of human plasma (Biochemed 752R-SC-PMG), mouse plasma (Biochemed 029-APSC-MP), rat plasma (Biochemed 031-APSC-MP), and beagle dog plasma (Biochemed 013-APSC-MP) were mixed with the compound and MPS to make a final concentration of 300 μM (final 0.5% DMSO). The resulting plasma mixtures were incubated at 37° C. water bath. Aliquots were taken before the reaction and on 1 day, 2 days, 4 days, and 7 days after the reaction, wherein each aliquot was 300 μL. To complete the reaction, two-fold volumes of acetonitrile was added, followed by brief vortexing, and centrifugation for plasma protein precipitation. Each supernatant obtained after centrifugation was collected and analyzed by HPLC. The compound A-1 was detected and quantitated in the mouse, rat, beagle dog, and human plasma for up to 7 days (>95%).

[2] = Plasma stability test, rat; type: in vitro ADME; details: 37° C., up to 7 days, 300 μM
Description: as §1

[3] = Chemical stability in PBS; type: physicochemical; details: PBS (pH 7.4), room temperature, light blocked, 7 days incubation
Description: The compound A-1 obtained by Example 58 was dissolved in DMSO, and mixed with PBS (pH 7.4) buffer solution to prepare a solution having a concentration of 500 μM (5% DMSO). MPS used as a standard material was prepared as a solution to have a concentration of 500 μM in PBS buffer solution. 420 μL of the buffer solution, and 140 μL of the compound A-1 solution and 140 μL of MPS solution were mixed, thereby preparing a reaction mixture in a total amount of 700 μL. The reaction mixture was incubated at room temperature while blocking the light. The reaction mixture was aliquoted on 0 day before the reaction and on 1 day, 2 days, 4 days, and 7 days after the reaction, wherein each aliquot amount was 70 μL. Then, the remaining compound A-1, MPS, and liberated tyrosine were quantitated by HPLC analysis.

[4] = Plasma stability test, mouse; type: in vitro ADME; details: 37° C., up to 7 days, 300 μM
Description: as §1

[5] = Plasma stability test, human; type: in vitro ADME; details: 37° C., up to 7 days, 300 μM
Description: as §1

[6] = target: T1, Escherichia coli β-glucuronidase (Escherichia coli, UniProt P05804); experiment: Enzymatic cleavage assay, Method 3; type: biochemical; details: Escherichia coli β-glucuronidase (Sigma G7396) in PBS buffer, PBS pH 7.4, 37° C., HPLC, read-out: TG release t1/2(min)
T1 construct: purchased Sigma G7396
Description: Method 3) Escherichia coli β-glucuronidase
The compounds A-1 and A-5 of the present invention were dissolved in DMSO, and mixed with PBS buffer solution to prepare a solution having a concentration of 500 μM (5% DMSO). MPS used as a standard material was prepared as a solution to have a concentration of 500 μM in PBS buffer solution. […] Then, 14 μL of enzyme solution (1 mg/mL) was added thereto, thereby preparing an enzyme reaction solution in a total amount of 700 μL. The reaction mixture was incubated at 37° C. Escherichia coli β-glucuronidase enzyme (Sigma G7396) was used in the reaction mixture.

[7] = target: Escherichia coli β-galactosidase (Escherichia coli, UniProt P00722); experiment: in vitro; details: recombinant enzyme, pH 7.4
Description: Method 1. Escherichia coli β-galactosidase
MPS used as a standard material was dissolved in PBS buffer solution to make 500 uM solution. […] This was followed by the addition of enzyme solution (14 μL of 1 mg/mL). When comparing with human β-galactosidase, 21 μL of enzyme solution (1 mg/mL) was added to achieve the same molar concentration, and the compound of the present invention and MPS each having an amount of 140 μL and […] of the buffer solution (pH 7.4) were mixed. The resulting reaction mixture was incubated at 37° C. Escherichia coli β-galactosidase enzyme (Sigma G4155) was used in the reaction mixture. The enzyme reaction solution was aliquoted at 0 min before the reaction and at a predetermined time after the reaction, respectively, wherein each aliquot was 70 μL. Then, the remaining compound of the present invention or MPS, and a material liberated by the enzyme reaction were quantitatively analyzed by HPLC.

[8] = test system: Escherichia coli β-galactosidase + β-glucuronidase; experiment: Enzymatic cleavage assay, Method 4; type: biochemical; details: PBS pH 7.4, 37° C., HPLC, read-out: TG release t1/2(min)
Description: Method 4 Escherichia coli β-Galactosidase+β-Glucuronidase
The compound A-5 of the present invention was dissolved in DMSO, and mixed with PBS buffer solution to prepare a solution having a concentration of 500 μM (5% DMSO). MPS used as a standard material was prepared as a solution to have a concentration of 500 μM in PBS buffer solution. […] Then, 14 μL of 1 mg/mL of β-galactosidase (Sigma G4155) and 14 μL of 1 mg/mL of β-glucuronidase (Sigma G7396) were added thereto, thereby preparing an enzyme reaction mixture in a total amount of 700 μL. The reaction mixture was incubated at 37° C.

BT-474 cancer cells = experiment: In vitro analysis of antibody-drug conjugate, BT-474; type: cell-based; details: 96 hours
Description: (§2) KB cancer cells were collected and seeded in 24-well plates at a density of 30,000 cells per well in 2 mL of medium, and cultured for 24 hours. Then, the serial dilutions of compound C-1 obtained in Example 108 were treated from 30 nM to 0.0096 nM, the serial dilutions of compound C-2 obtained in Example 109 were treated from 1000 nM to 0.32 nM, serial dilutions of the compound C-3 obtained in Example 110 and the compound C-7 obtained in Example 114 were treated from 25 nM to 0.0016 nM, and serial dilutions of the drug MMAF-OMe were treated from 10 nM to 0.0097 nM. The serial dilutions of compounds C-5 and C-6 obtained in Example 112 and Example 113 were treated from 100 nM to 0.0001 nM, and the serial dilutions of drug seco-DUBA were treated from 100 nM to 0.001 nM. […] The formazans formed by reduction of the MTT dye by mitochondrial oxidoreductases in the living cells were dissolved in DMSO, and measured using the absorbance at 550 nm.
(§3) KB, SKBR-3, BT-474, NCI-N87 cancer cells were seeded in 96-well plates at a density of 2,000 to 8,000 cells per well in 100 μL of medium, and cultured for 24 hours. […] Experiments were performed in a similar manner to Test Example 3 to quantify living cells 96 hours later, and results are shown in Tables 4 and 5 below.

SKBR-3 cancer cells = experiment: In vitro analysis of antibody-drug conjugate, SKBR-3; type: cell-based; details: 96 hours
Description: as §2, §3

NCI-N87 cancer cells = experiment: In vitro analysis of antibody-drug conjugate, NCI-N87; type: cell-based; details: 96 hours
Description: as §2, §3

NCI-N87 cells = experiment: In vivo efficacy, tumor xenograft; set-up: species or system mice; details: male BALB/c nu/nu, single i.v. injection day 0, 2 mg/kg
Description: In vivo efficacy of antibody-drug conjugates of the invention was measured by tumor xenograft studies in mice. Male BALB/c nu/nu were injected subcutaneously in the right flank with suspensions of 1×10^6 of NCI-N87 cells respectively in PBS. Mice were randomized into study groups when tumors reached approximately 100 mm^3. T-DM1 (2 mg/kg), D-1-AB, D-2-AB, D-8-AB, and D-18-AB conjugates (0.5 mg/kg or 2 mg/kg) were given i.v. (single injection on treatment day 0). All treatment groups consisted of 6 to 10 animals per group, and tumor size was monitored twice weekly using caliper measurement. The tumor mass was calculated as volume=(width×width×length)/2.

KB cancer cells [9] = experiment: In vitro analysis of protein-drug conjugate, KB; type: cell-based; details: 96 hours, read-out: KB cell IC50
Description: as §2, §3

KB cancer cells [10] = experiment: cells; type: cell-based; details: MTT; 72 hours, 96 hours, or 144 hours of incubation; read-out: KB cell IC50
Description: KB cancer cells were collected and seeded in 24-well plates at a density of 30,000 cells per well in 2 mL of medium, and cultured for 24 hours. Then, the serial dilutions of compound C-1 obtained in Example 108 were treated from 30 nM to 0.0096 nM, the serial dilutions of compound C-2 obtained in Example 109 were treated from 1000 nM to 0.32 nM, serial dilutions of the compound C-3 obtained in Example 110 and the compound C-7 obtained in Example 114 were treated from 25 nM to 0.0016 nM, and serial dilutions of the drug MMAF-OMe were treated from 10 nM to 0.0097 nM. The serial dilutions of compounds C-5 and C-6 obtained in Example 112 and Example 113 were treated from 100 nM to 0.0001 nM, and the serial dilutions of drug seco-DUBA were treated from 100 nM to 0.001 nM. Serial dilutions of the compounds C-4 and C-9 obtained in Example 111 and Example 116 were treated from 1000 nM to 0.001 nM, and the serial dilutions of drug CBI dimer were treated by from 10 nM to 0.00001 nM. Serial dilutions of the compound C-8 obtained in Example 115 and the drug CBI-indole were treated from 100 nM to 0.0001 nM. After 72 hours, 96 hours, or 144 hours of incubation, 0.2 mL of 3-(4,5-dimethylthiazol-2-yl)-2,5-diphenyltetrazolium bromide (MTT) dye, dissolved in PBS buffer solution (5 mg/mL), was added to each well of the plates. The formazans formed by reduction of the MTT dye by mitochondrial oxidoreductases in the living cells were dissolved in DMSO, and measured using the absorbance at 550 nm.

T1 sequence (P05804 whole entry): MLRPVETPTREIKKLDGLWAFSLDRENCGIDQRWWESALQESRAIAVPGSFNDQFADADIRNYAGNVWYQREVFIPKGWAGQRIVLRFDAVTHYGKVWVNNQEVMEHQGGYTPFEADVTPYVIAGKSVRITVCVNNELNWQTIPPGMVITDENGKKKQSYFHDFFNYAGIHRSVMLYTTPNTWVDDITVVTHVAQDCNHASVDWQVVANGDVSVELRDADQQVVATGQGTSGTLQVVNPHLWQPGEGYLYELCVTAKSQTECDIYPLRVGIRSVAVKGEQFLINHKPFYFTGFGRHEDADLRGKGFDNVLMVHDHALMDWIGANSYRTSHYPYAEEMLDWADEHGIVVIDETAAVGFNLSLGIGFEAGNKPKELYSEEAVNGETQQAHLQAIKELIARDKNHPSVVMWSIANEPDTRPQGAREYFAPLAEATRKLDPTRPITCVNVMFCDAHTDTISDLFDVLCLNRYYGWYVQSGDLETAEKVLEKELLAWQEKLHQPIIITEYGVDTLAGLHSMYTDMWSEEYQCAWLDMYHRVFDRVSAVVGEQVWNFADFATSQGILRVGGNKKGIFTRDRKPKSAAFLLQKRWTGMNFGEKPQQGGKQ
Sequence of Escherichia coli β-galactosidase (P00722 2-1024): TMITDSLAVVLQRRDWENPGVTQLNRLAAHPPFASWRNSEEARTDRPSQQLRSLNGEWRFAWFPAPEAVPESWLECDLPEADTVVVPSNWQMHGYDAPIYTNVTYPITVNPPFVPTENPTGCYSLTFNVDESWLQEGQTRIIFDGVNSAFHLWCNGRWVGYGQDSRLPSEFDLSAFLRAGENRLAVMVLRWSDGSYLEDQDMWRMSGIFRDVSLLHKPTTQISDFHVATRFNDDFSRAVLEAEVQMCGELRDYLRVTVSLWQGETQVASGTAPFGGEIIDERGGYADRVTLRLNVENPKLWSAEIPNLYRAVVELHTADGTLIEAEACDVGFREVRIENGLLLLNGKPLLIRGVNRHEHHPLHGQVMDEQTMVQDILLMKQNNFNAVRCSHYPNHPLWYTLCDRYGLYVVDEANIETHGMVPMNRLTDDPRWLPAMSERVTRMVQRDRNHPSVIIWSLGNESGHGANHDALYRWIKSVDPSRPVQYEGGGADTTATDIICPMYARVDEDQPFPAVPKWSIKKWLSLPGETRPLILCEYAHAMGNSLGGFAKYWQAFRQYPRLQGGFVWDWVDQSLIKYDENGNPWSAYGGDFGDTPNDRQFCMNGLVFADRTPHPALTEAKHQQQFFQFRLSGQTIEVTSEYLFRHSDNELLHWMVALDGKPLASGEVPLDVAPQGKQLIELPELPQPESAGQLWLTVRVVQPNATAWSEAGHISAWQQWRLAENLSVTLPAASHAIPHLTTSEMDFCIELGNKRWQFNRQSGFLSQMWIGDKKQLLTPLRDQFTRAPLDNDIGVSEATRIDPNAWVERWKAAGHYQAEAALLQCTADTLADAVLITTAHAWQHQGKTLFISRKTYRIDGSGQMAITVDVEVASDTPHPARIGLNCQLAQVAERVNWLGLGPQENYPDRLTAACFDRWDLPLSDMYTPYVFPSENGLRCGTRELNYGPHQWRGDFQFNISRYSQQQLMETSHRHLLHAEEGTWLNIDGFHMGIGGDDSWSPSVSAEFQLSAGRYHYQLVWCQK

With `CC(C)(C)OC(=O)NC(Cc1ccc(OS(=O)(=O)Oc2ccccc2O[C@@H]2O[C@H](CO)[C@H](O)[C@H](O)[C@H]2O)cc1)C(=O)O` (stereo partly shown) [Compound A-1] the “compound detected and quantitated in plasma” value [1] was over 95%, the “compound detected and quantitated in plasma” value [2] was over 95% and the “compound present (remaining)” value [3] was over 95%. The “compound detected and quantitated in plasma” value [4] was over 95%, the “compound detected and quantitated in plasma” value [5] was over 95% and the half-life at 100 μM [6] was 0.43 ± 0.11 min.
`CC(C)(C)OC(=O)N[C@H](Cc1ccc(OS(=O)(=O)Oc2ccccc2O[C@@H]2O[C@H](COC3O[C@H](C(=O)O)[C@@H](O)[C@H](O)[C@H]3O)[C@H](O)[C@H](O)[C@H]2O)cc1)C(=O)O` (stereo partly shown) [Compound A-5] showed a half-life at 100 μM [7] of under 5 min, a half-life at 100 μM [6] of under 5 min and a half-life at 100 μM [8] of under 5 min.
With T-DM1 the IC50 (BT-474 cancer cells) was 0.18 nM, the IC50 (SKBR-3 cancer cells) was 0.02 nM and the IC50 (NCI-N87 cancer cells) was 0.02 nM. For the same compound, the “activity compared with the conjugates of the invention” value (NCI-N87 cells) was “less active”.
For `CC[C@H](C)[C@@H]([C@@H](CC(=O)N1CCC[C@H]1[C@H](OC)[C@@H](C)C(=O)N[C@@H](Cc1ccccc1)C(=O)OC)OC)N(C)C(=O)[C@@H](NC(=O)[C@@H](NC)C(C)C)C(C)C` [MMAF-OMe] (H-[NMeV]V[Dil][Dolaproine]F-OMe), the IC50 (KB cancer cells [9]; values marked * (asterisk not explained)) was 160 pM, the IC50 (KB cancer cells [9]; values without asterisk) was 440 pM and the IC50 (KB cancer cells [10]) was 350 ± 70 pM.
